Experimental data reported in PubChem BioAssay (NCI).
Several values for one entry are separate records, joined by “and”; a condition that tells them apart may be missing. Equal entries are not always repeated.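 Following 48 hours of exposure in 96-well plates, responses at five concentrations were used to interpolate endpoints linearly. GI50: concentration for 50% inhibition of growth. TGI marks complete inhibition of growth.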

Key:
Experiment in all cases: NCI anticancer screen, dose series, 48 h
HCT-116 colon = test system: HCT-116 colon
HT29 colon = test system: HT29 colon
SK-MEL-5 melanoma = test system: SK-MEL-5 melanoma
LOX IMVI melanoma = test system: LOX IMVI melanoma
UO-31 renal = test system: UO-31 renal
KM12 colon = test system: KM12 colon
M14 melanoma = test system: M14 melanoma
SK-MEL-28 melanoma = test system: SK-MEL-28 melanoma
NCI-H23 lung = test system: NCI-H23 lung
OVCAR-3 ovarian = test system: OVCAR-3 ovarian

Row | SMILES | TGI (HCT-116 colon) | TGI (HT29 colon) | TGI (SK-MEL-5 melanoma) | TGI (LOX IMVI melanoma) | TGI (UO-31 renal) | TGI (KM12 colon) | TGI (M14 melanoma) | TGI (SK-MEL-28 melanoma) | TGI (NCI-H23 lung) | TGI (OVCAR-3 ovarian) | GI50 (HCT-116 colon) | GI50 (HT29 colon) | GI50 (SK-MEL-5 melanoma) | GI50 (LOX IMVI melanoma) | GI50 (UO-31 renal) | GI50 (KM12 colon) | GI50 (M14 melanoma) | GI50 (SK-MEL-28 melanoma) | GI50 (OVCAR-3 ovarian) | GI50 (NCI-H23 lung)
1 | O=C(NCCCl)Nc1cccnc1 | 32 µM | 34.9 µM | > 100 µM | 55.3 µM | 50.3 µM | 41.5 µM | > 100 µM | > 100 µM | 46.2 µM | 83.2 µM |  |  |  |  |  |  |  |  |  | 
2 | CC(C)(C)c1cc(NC(=O)Nc2ccc(-c3cn4c(n3)sc3cc(OCCN5CCOCC5)ccc34)cc2)no1 | 19 µM and 11.1 µM and > 10 µM | 27 µM and 11.4 µM and > 10 µM | 18.2 µM and 3.31 µM and > 10 µM | 30.1 µM and 8.21 µM and > 10 µM | 18.3 µM and 4.57 µM and > 10 µM | 27.3 µM and 14.6 µM and > 10 µM | 26.8 µM and 16 µM and > 10 µM | 17.5 µM and 12 µM and > 10 µM | 26.8 µM and 12.8 µM and > 10 µM | 19.4 µM and 8.38 µM and > 10 µM | 4.23 µM and 0.576 µM and 5.19 µM | 5.61 µM and 0.633 µM and 4.28 µM | 3.81 µM and 0.985 µM and 1.97 µM | 5.86 µM and 0.928 µM and 5.07 µM | 3.62 µM and 0.45 µM and 3.93 µM | 0.532 µM and 0.496 µM and 0.438 µM | 8.49 µM and 1.28 µM and 6.56 µM | 4.23 µM and 2.04 µM and > 10 µM | 6.61 µM and 1.54 µM and 6.76 µM | 
3 | O=C(/C=C/c1ccccc1O)c1ccc([N+](=O)[O-])cc1 | 29 µM | 36.7 µM | 49.8 µM | 33.4 µM | 33.2 µM | 40.4 µM | 52.2 µM | 94.4 µM | 25.4 µM | 25.5 µM |  |  |  |  |  |  |  |  |  | 
4 | CCOC(=O)C1=C(C)NC(=O)NC1CN1C(=O)c2ccccc2C1=O (centres undefined) | > 100 µM | > 100 µM | > 100 µM | > 100 µM | > 100 µM | > 100 µM | > 100 µM | > 100 µM | > 100 µM | > 100 µM | > 100 µM | > 100 µM | > 100 µM | > 100 µM | > 100 µM | > 100 µM | > 100 µM | > 100 µM | > 100 µM | > 100 µM
5 | CSc1nc2nn(Cc3ccccc3)cc2c(=O)[nH]1 | > 100 µM | > 100 µM | > 100 µM | > 100 µM | > 100 µM | > 100 µM | > 100 µM | > 100 µM | > 100 µM | > 100 µM |  |  |  |  |  |  |  |  |  | 
6 | CC(C)(C)c1cc(/C=N/NC(=O)c2ccccc2NC(=O)c2cccs2)c(O)c(C(C)(C)C)c1 | 14.4 µM | > 100 µM | > 100 µM | > 100 µM | 15.7 µM | > 100 µM | 16 µM | 46.2 µM | 25.5 µM | 10.5 µM | 0.713 µM | 0.798 µM | 0.7 µM | 0.542 µM | 0.269 µM | 0.831 µM | 0.459 µM | 3 µM | 1.06 µM | 1.62 µM
7 | CCOc1ccc(/C=C/c2cc(OC)c(OC)c(OC)c2)cc1 | 15.2 µM | > 100 µM | 14.6 µM | > 100 µM | > 100 µM | > 41.6 µM | 5.29 µM | > 100 µM | > 45.6 µM | 1.88 µM |  |  |  |  |  |  |  |  |  | 
8 | Cn1c2c(c3ccccc31)CCN(CCCCN1CCN(c3ccccc3)CC1)C2=O | > 100 µM | 25.4 µM | 22.9 µM | 32.1 µM | > 80.9 µM | > 89.9 µM | 16.9 µM | > 61.8 µM | > 76.8 µM | > 100 µM |  |  |  |  |  |  |  |  |  | 
